Data published in patent US20170334899A1, “AMINO-SUBSTITUTED ISOTHIAZOLES” (Bayer Pharma Aktiengesellschaft, priority 2014, published 2017).

How the values were obtained:
[1] = tested on: human cervical tumor cell line HeLa (ATCC CCL-2); test: SAC-Formation - Nocodazole-Induced Assay; format: cell-based; conditions: Homo sapiens, HeLa, 24 h, HeLa cells, nocodazole 0.1 μg/ml together with test compound, decrease of mitotic cells (phospho-histone H3 Ser10)
Summary of the method: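 HeLa cells, plated overnight, were treated 24 h at 37 °C with nocodazole (0.1 μg/ml final) plus test compound (0.005–20 μM, 0.5% DMSO) added at the same time. After fixation, anti-phospho-histone H3 Ser10 and Hoechst staining gave the mitotic cell fraction by imaging. Values came from four-parameter Hill fits.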

[2] = tested on: human cervical tumor cell line HeLa (ATCC CCL-2); test: SAC-Formation - Paclitaxel-Induced Assay; format: cell-based; conditions: Homo sapiens, HeLa, 24 h, HeLa cells, paclitaxel 0.05 μM, test range 0.005 μM-20 μM, read-out: IC50 [mol/l] SAC-Formation - Paclitaxel-Induced Assay
Summary of the method: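 HeLa cells incubated overnight at 37° C, then given paclitaxel (0.05 μM final) plus test compound (0.005–20 μM, 0.5% DMSO) together for 24 h at 37° C. Fixed cells stained for phospho-histone H3 Ser10 (mitotic cells) and Hoechst 33342 (cell count); imaging-derived mitotic index fitted by four-parameter Hill equation.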

| Structure (SMILES) | IC50 [1] | IC50 [2] |
| --- | --- | --- |
| Cc1nsc(Nc2cnc3ccccc3n2)c1C(=O)Nc1cccc(C(=O)N2CCCC2)c1 [Example 113, 3-Methyl-N-[3-(pyrrolidin-1-ylcarbonyl)phenyl]-5-(quinoxalin-2-ylamino)-1,2-thiazole-4-carboxamide] | 210 nM | 1700 nM |
| Cc1nsc(Nc2cc(C#N)ccn2)c1C(=O)Nc1cccc(C(=O)N2CCCC2)c1 [Example 114, 5-[(4-Cyanopyridin-2-yl)amino]-3-methyl-N-[3-(pyrrolidin-1-ylcarbonyl)phenyl]-1,2-thiazole-4-carboxamide] | 210 nM | 1300 nM |
| Cc1nsc(Nc2cnc3ccccc3n2)c1C(=O)Nc1ccc(S(C)(=O)=O)cc1 [Example 115, 3-Methyl-N-[4-(methylsulfonyl)phenyl]-5-(quinoxalin-2-ylamino)-1,2-thiazole-4-carboxamide] | 1200 nM | 3700 nM |
| CCNS(=O)(=O)c1ccc(NC(=O)c2c(C)nsc2Nc2cnc3ccccc3n2)cc1 [Example 116, N-[4-(Ethylsulfamoyl)phenyl]-3-methyl-5-(quinoxalin-2-ylamino)-1,2-thiazole-4-carboxamide] | 810 nM | 1500 nM |
| Cc1nsc(Nc2cnc3ccccc3n2)c1C(=O)Nc1ccc(Oc2cccc(C(F)(F)F)c2)nc1 [Example 117, 3-Methyl-5-(quinoxalin-2-ylamino)-N-{6-[3-(trifluoromethyl)phenoxy]pyridin-3-yl}-1,2-thiazole-4-carboxamide] | 190 nM | 1500 nM |
| Cc1nsc(Nc2ccc(C#N)cn2)c1C(=O)Nc1ccc(Oc2cccc(C(F)(F)F)c2)nc1 [Example 118, 5-[(5-Cyanopyridin-2-yl)amino]-3-methyl-N-{6-[3-(trifluoromethyl)phenoxy]pyridin-3-yl}-1,2-thiazole-4-carboxamide] | 110 nM | 53 nM |
| Cc1nsc(Nc2cc(C#N)ccn2)c1C(=O)Nc1ccc(Oc2cccnc2)nc1 [Example 119, 5-[(4-Cyanopyridin-2-yl)amino]-3-methyl-N-[6-(pyridin-3-yloxy)pyridin-3-yl]-1,2-thiazole-4-carboxamide] | 4500 nM | 20000 nM |
| Cc1nsc(Nc2cnc(C(F)(F)F)cn2)c1C(=O)Nc1ccc(OCC2CCN(CCF)C2)nc1 (stereo not drawn) [Example 121, N-(6-{[1-(2-fluoroethyl)pyrrolidin-3-yl]methoxy}pyridin-3-yl)-3-methyl-5-{[5-(trifluoromethyl)pyrazin-2-yl]amino}-1,2-thiazole-4-carboxamide] | 340 nM | 43 nM |
| Cc1nsc(Nc2cnc(C(F)(F)F)cn2)c1C(=O)Nc1ccc(OCC2CCN(CC(F)F)C2)nc1 (stereo not drawn) [Example 122, N-(6-{[1-(2,2-difluoroethyl)pyrrolidin-3-yl]methoxy}pyridin-3-yl)-3-methyl-5-{[5-(trifluoromethyl)pyrazin-2-yl]amino}-1,2-thiazole-4-carboxamide] | 39 nM | 30 nM |
| Cc1nsc(Nc2cnc(C(F)(F)F)cn2)c1C(=O)Nc1ccc(OCC2CCN(CC(F)(F)F)C2)nc1 (stereo not drawn) [Example 123, 3-Methyl-N-(6-{[1-(2,2,2-trifluoroethyl)pyrrolidin-3-yl]methoxy}pyridin-3-yl)-5-{[5-(trifluoromethyl)pyrazin-2-yl]amino}-1,2-thiazole-4-carboxamide] | 12 nM | 24 nM |
| Cc1nsc(Nc2cnc(C(F)(F)F)cn2)c1C(=O)Nc1ccc(OCC2CCN(CCC(F)(F)F)C2)nc1 (stereo not drawn) [Example 124, 3-methyl-5-{[5-(trifluoromethyl)pyrazin-2-yl]amino}-N-(6-{[1-(3,3,3-trifluoropropyl)pyrrolidin-3-yl]methoxy}pyridin-3-yl)-1,2-thiazole-4-carboxamide] | 24 nM | 38 nM |
| Cc1nsc(Nc2cnc(C(F)(F)F)cn2)c1C(=O)Nc1ccc(OC[C@@H]2CCN(CC(F)F)C2)nc1 [Example 127, N-(6-{[(3R)-1-(2,2-difluoroethyl)pyrrolidin-3-yl]methoxy}pyridin-3-yl)-3-methyl-5-{[5-(trifluoromethyl)pyrazin-2-yl]amino}-1,2-thiazole-4-carboxamide] | 53 nM | 83 nM |
